Experimental data reported in article PMC8645997, “Population Pharmacokinetics of Polymyxin B in Obese Patients for Resistant Gram-Negative Infections” (Frontiers in Pharmacology, 2021).
Where a SMILES comes first, the peptide text is derived from it. Bridges are numbered along the chain shown (N, C = ends). [ ]: non-standard residue; d: D form. The star is where a group is joined. X1 = CC[C@H](C)CCCCC(=O)*; Dab = NCC[C@H](N)C(=O)O

Assays:
[1] = cited from earlier work
Description: As a weight-based dosing antibiotic with a narrow therapeutic window, polymyxin B regimen in obese patients is particularly concerning. The present study developed a two-compartment model to describe the population PK profile of polymyxin B in obese patients. […] In terms of V and V2 estimates, the values varied widely between studies ([Avedissian et al., 2019]). Compared with the PK parameters reported by our group and Sandri et al, the typical V value (11.24 L, Table 2) was higher than thos ... || Obesity can cause related pathophysiological changes that could theoretically alter the PK characteristic of drugs, such as increased Vd, altered hepatic metabolism, renal CL, and protein binding. An understanding of how the Vd of a drug changes in obesity is critical because this parameter determines loading-dose selection ([Hanley et al., 2010]). Vd is affected by physicochemical property (lipophilicity or hydrophilicity), plasma protein binding rate, and tissue blood flow ([Al-Dorzi et al., 2014]; [Polso et al., 2014]). Hydrophilic drugs typically have a low Vd, poor tissue penetration, les ...

[2] = intermediate to high protein binding; ref Sandri et al., 2013; Abodakpi et al., 2015; Avedissian et al., 2019; cited from earlier work
Description: Obesity can cause related pathophysiological changes that could theoretically alter the PK characteristic of drugs, such as increased Vd, altered hepatic metabolism, renal CL, and protein binding. An understanding of how the Vd of a drug changes in obesity is critical because this parameter determines loading-dose selection ([Hanley et al., 2010]). Vd is affected by physicochemical property (lipophilicity or hydrophilicity), plasma protein binding rate, and tissue blood flow ([Al-Dorzi et al., 2014]; [Polso et al., 2014]). Hydrophilic drugs typically have a low Vd, poor tissue penetration, les ...

[3] = Population PK modeling of polymyxin B plasma concentrations in obese patients (two-compartment model, Phoenix NLME); format: in vivo, human
Method: This retrospective observational study was performed in the First Affiliated Hospital of Zhengzhou University between April 2018 and March 2021. The inclusion criteria for subjects were as follows: 1) patients ≥18 years old; 2) body mass index (BMI) ≥ 30; 3) patients had received intravenous polymyxin B (sulfate; polymyxin B for injection, Shanghai First Biochemical Pharmaceutical Co., Ltd.) for MDR Gram-negative infections; 4) blood sampling at steady state for therapeutic drug monitoring (TDM) was available. Subjects were excluded if 1) patients with continuous renal replacement therapy (CRRT) or extracorporeal membrane oxygenation (ECMO); 2) concentrations were below the lower limit of quantitation. The study protocols were approved by Zhengzhou University Medical Research and Ethics Committee (2021-KY-0441).
Polymyxin B was given to all patients empirically with a 100–200 mg loading dose and a 50–100 mg maintenance dose twice daily. The routine infusion time was at least 1 hour. Polymyxin B treatment, including dosage, infusion time, and treatment course, was determined by their medical teams. Sampling procedures included the following two categories.
From April 2018 to May 2019, 4-7 blood samples (mainly C0h, C1h, C1.5h, C2h, C4h, C6h, and C8h) were collected on day 4 to calculate the area under the concentration across 12 h at steady state (AUCss,12h). From June 2019 to March 2021, according to our previous study, a 2-point model using the limited sampling strategy was a practical approach to estimating polymyxin B AUCss,12h. Therefore, two blood samples (C0h and C2h) were collected. The infusion time was 1 hour ([Wang et al., 2020c]).
Blood samples were immediately centrifuged at 3,500 × g for 10 min. The supernatant was collected and then stored at −80°C until analysis. Polymyxin B concentrations (i.e., the polymyxin B1 concentration plus the polymyxin B2 concentration) were analyzed using a validated high-performance liquid chromatography-mass spectrometry method published by our laboratory ([Wang et al., 2020b]). As previously reported, the assay was linear over 0.2–10.0 μg/ml for polymyxin B1 and 0.05–2.5 μg/ml for polymyxin B2. The intra- and inter-batch assay precision (RSD) ranged from 0 to 13.93% for quality control samples, and their corresponding accuracy (% relative error) ranged from −11.56 to 11.13% ([Wang et al., 2020b]). Since polymyxin B1 and B2 had similar structures, molecular weight, pharmacological activities, and pharmacokinetic characteristics, the plasma concentration of polymyxin B was summed to derive the total polymyxin B1 and B2 concentrations ([Tam et al., 2011]; [Manchandani et al., 2016]).
Population PK modeling process was performed with the Phoenix® NLME software (v7.0, Pharsight, Mountain View, CA, USA). In brief, different PK models (one-, two-, or three-compartment models) were compared using the first-order conditional estimation-extended least-squares (FOCE ELS) method. The inter-individual variability (IIV) of PK parameters was assumed by additive, proportional, or mixed (additive plus proportional) models. The coefficient of variation (CV), the distribution of residuals in diagnostic plots, and the likelihood ratio test (-2 loglikelihood; -2LL) were used to evaluate the model. Following the basic structural modeling step, a stepwise process was used to consider several covariates, including age, TBW, BMI, IBW, ABW, sex, SOFA score, CrCL, adjusted CrCL, ideal CrCL, serum creatinine, and GFR. A drop >6.63 (p = 0.01) of objective function value (OFV; -2LL) for forward addition and an increase of OFV >10.83 (p = 0.001) for backward elimination were the inclusion criteria for covariates. After covariate selection, based on the scatter plot and ΔOFV (a drop of OFV >6.63), the relevant correlation between random effects was also explored.
For model evaluation, the goodness-of-fit (GOF) plots were used to evaluate the reliability of the final model. […]

[4] = daily dose ≥250 mg; 151 patients; 95% CI 1.15–16.25, p = 0.03; ref Nelson et al., 2015; cited from earlier work
Method: From a toxicology perspective, the use of TBW-based dosing in obese patients can lead to polymyxin B overexposure and risk of acute kidney injury (AKI). In a retrospective study of 151 patients, Nelson et al. discovered that a daily dose ≥250 mg was an independent predictor of nephrotoxicity (OR 4.32, 95% CI 1.15–16.25, p = 0.03) in multivariate analysis ([Nelson et al., 2015]). […] These studies raised an important point abo ...

[5] = obese patients, n = 26, iv, steady state

CC[C@H](C)CCCCC(=O)N[C@@H](CCN)C(=O)N[C@H](C(=O)N[C@@H](CCN)C(=O)N[C@H]1CCNC(=O)[C@H]([C@@H](C)O)NC(=O)[C@H](CCN)NC(=O)[C@H](CCN)NC(=O)[C@H](CC(C)C)NC(=O)[C@@H](Cc2ccccc2)NC(=O)[C@H](CCN)NC1=O)[C@@H](C)O [polymyxin B] (X1-[Dab]T[Dab][Dab][Dab][dF]L[Dab][Dab]T; lactam 4-C)
Vd ([1]; low to intermediate Vd, ref Sandri et al., 2013, Abodakpi et al., 2015, Avedissian et al., 2019): 6.3 to 47.2 L
typical CL value, previous reports ([1]; previous reports, ref Avedissian et al., 2019): 1.87 to 2.63 L/h
V2 value, reported previously ([1]; ref Sandri et al., 2013, Wang et al., 2020c, 2021): 10.57 to 11.97 L
typical V value, reported previously ([1]; reported by our group and Sandri et al, ref Sandri et al., 2013, Wang et al., 2020c, Wang et al., 2021): 6.22 to 6.98 L
protein binding [2]: 58–90%
tvCL, bootstrap median ([3]; bootstrap, 1,000 samples): 2.73
tvQ, bootstrap median ([3]; bootstrap, 1,000 samples): 7.71
tvV2, bootstrap median ([3]; bootstrap, 1,000 samples): 40.46
tvV, bootstrap median ([3]; bootstrap, 1,000 samples): 11.46
tvV, typical value of central compartment distribution volume (V), final model estimate ([3]; obese patients (BMI >=30), n = 26, 142 plasma concentrations, iv, steady state): 11.24 L
tvCL, central compartment clearance, final model estimate [3, 5]: 2.86 L/h
tvQ, inter-compartmental clearance, final model estimate [3, 5]: 7.36
tvV2, peripheral compartment distribution volume, final model estimate [3, 5]: 39.70 L
OR of nephrotoxicity (independent predictor, multivariate analysis) [4]: 4.32
